According to US9364467B2 (Salix Pharmaceuticals, Ltd, priority 2012, dated 2016):
Converted amounts (≈) assume the structure as drawn. Read-outs that look alike come from different tables or passages of the source.

Tests used:
Bombesin BB1 = Bombesin BB1 (Homo sapiens, UniProt P28336); assay: Radioligand binding assay, Bombesin BB1; conditions: CONC. 10 μM, hum
Protocol: (§1) Methods employed in this study have been adapted from the scientific literature to maximize reliability and reproducibility. Reference standards were run as an integral part of each assay to ensure the validity of the results obtained. Assays were performed under conditions described in the accompanying “Methods” section below. The literature reference(s) for each assay are in the “Literature References” section.
(§2) Where presented, IC50 values were determined by a non-linear, least squares regression analysis using MathIQ™ (ID Business Solutions Ltd., UK). Where inhibition constants (KI) are presented, the KI values were calculated using the equation of Cheng and Prusoff (Cheng, Y., Prusoff, W. H., Biochem. Pharmacol. 22:3099-3108, 1973) using the observed IC50 of the tested compound, the concentration of radioligand employed in the assay, and the historical values for the KD of the ligand (obtained experimentally at Ricerca Biosciences, LLC). Where presented, the Hill coefficient (nH), defining the slope of the competitive binding curve, was calculated using MathIQ™. […] Where IC50, KI, and/or nH data are presented without Standard Error of the Mean (SEM), data are insufficient to be quantitative, and the values presented (KI, IC50, nH) should be interpreted with caution. […]

[1] = molecular target: T1, N-Formyl Peptide Receptor FPR1 (Homo sapiens, UniProt P21462); assay: Radioligand binding assay, N-Formyl Peptide Receptor FPR1; conditions: CONC. 10 μM, hum
T1 sequence (P21462 1-350): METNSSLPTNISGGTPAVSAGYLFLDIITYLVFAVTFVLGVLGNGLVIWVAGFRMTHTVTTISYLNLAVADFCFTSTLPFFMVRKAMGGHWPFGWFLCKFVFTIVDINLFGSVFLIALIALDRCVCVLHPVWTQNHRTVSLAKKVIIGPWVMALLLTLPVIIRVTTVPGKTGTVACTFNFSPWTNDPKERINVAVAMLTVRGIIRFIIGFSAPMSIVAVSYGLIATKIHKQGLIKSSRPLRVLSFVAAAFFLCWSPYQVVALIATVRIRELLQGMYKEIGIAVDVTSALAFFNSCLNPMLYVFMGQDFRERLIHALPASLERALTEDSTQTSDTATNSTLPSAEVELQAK
Protocol: as §1, §2

[2] = Screen at 10 μM against 168 targets; assay type: binding
S. haemolyticus = assay: In vitro activity (MIC) against S. haemolyticus strains; conditions: Staphylococcus haemolyticus
[3] = system: Staphylococcus spp. strains; assay: In vitro activity (MIC) against Staphylococcus spp. strains; conditions: for MIC50 / MIC90 / MIC: Staphylococcus
[4] = read-out: Mode (MIC), Staphylococcus spp. strains

Sequence of Bombesin BB1 (P28336 whole entry): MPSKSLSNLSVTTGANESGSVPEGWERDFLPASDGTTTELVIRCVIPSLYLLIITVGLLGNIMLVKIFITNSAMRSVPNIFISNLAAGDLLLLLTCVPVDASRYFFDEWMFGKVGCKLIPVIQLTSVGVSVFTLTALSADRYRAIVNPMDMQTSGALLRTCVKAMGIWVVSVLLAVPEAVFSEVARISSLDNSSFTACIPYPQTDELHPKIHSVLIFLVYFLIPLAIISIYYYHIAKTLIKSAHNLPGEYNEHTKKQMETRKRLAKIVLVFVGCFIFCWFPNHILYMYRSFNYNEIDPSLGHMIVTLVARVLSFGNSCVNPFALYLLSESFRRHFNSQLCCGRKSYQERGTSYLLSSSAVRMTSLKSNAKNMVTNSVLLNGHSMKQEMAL

COC1/C=C/O[C@@]2(C)Oc3c(C)c(O)c4c(O)c(c5c(c4c3C2=O)NC2C=C(C)C=CN52)NC(=O)/C(C)=C\C=C\C(C)C(O)C(C)C(O)C(C)C(O)C1C (stereo partly shown) [25-desacetyl rifaximin]
inhibition at 10 µM (Bombesin BB1): > 50%
inhibition at 10 µM [1]: > 50%
hits (50% effect, either inhibition or stimulation) in screen against 168 targets [2]: two “hits”
MIC (S. haemolyticus; strain S. haemolyticus 243): 0.5 µg/mL (≈ 0.67 µM)
MIC (S. haemolyticus; strain S. haemolyticus 276): 1 µg/mL (≈ 1.34 µM)
MIC (S. haemolyticus; strain S. haemolyticus 955): 1 µg/mL (≈ 1.34 µM)
MIC (S. haemolyticus; strain S. haemolyticus 982): 0.5 µg/mL (≈ 0.67 µM)
MIC50 [3]: 2 µg/mL (≈ 2.68 µM)
MIC90 [3]: 16 µg/mL (≈ 21.5 µM)
MIC [3, 4]: 2 µg/mL (≈ 2.68 µM)
MIC ([3]; strain S. spp. 1102): 1 µg/mL (≈ 1.34 µM)
MIC ([3]; strain S. spp. 1187): 2 µg/mL (≈ 2.68 µM)
MIC ([3]; strain S. spp. 1195): 0.12 µg/mL (≈ 0.161 µM)
MIC ([3]; strain S. spp. 1256): 4 µg/mL (≈ 5.36 µM)
MIC ([3]; strain S. spp. 1312): 4 µg/mL (≈ 5.36 µM)
MIC ([3]; strain S. spp. 1689): 4 µg/mL (≈ 5.36 µM)
MIC ([3]; strain S. spp. 1745): 0.25 µg/mL (≈ 0.335 µM)

CO[C@H]1/C=C/O[C@@]2(C)Oc3c(C)c(O)c4c(O)c(c5c(nc6cc(C)ccn65)c4c3C2=O)NC(=O)/C(C)=C\C=C\[C@H](C)[C@H](O)[C@@H](C)[C@@H](O)[C@@H](C)[C@H](OC(C)=O)[C@@H]1C [Rifaximin, reference compound]
inhibition at 10 µM (Bombesin BB1): < 50%
inhibition at 10 µM [1]: < 50%
MIC (S. haemolyticus; strain S. haemolyticus 243): 0.06 µg/mL (≈ 0.0763 µM)
MIC (S. haemolyticus; strain S. haemolyticus 276): 0.12 µg/mL (≈ 0.153 µM)
MIC (S. haemolyticus; strain S. haemolyticus 955): 0.12 µg/mL (≈ 0.153 µM)
MIC (S. haemolyticus; strain S. haemolyticus 982): 0.06 µg/mL (≈ 0.0763 µM)
MIC50 [3]: 0.25 µg/mL (≈ 0.318 µM)
MIC90 [3]: 1 µg/mL (≈ 1.27 µM)
Range (MIC) ([3]; Staphylococcus spp. strains): 0.03 to 1 µg/mL
MIC [3, 4]: 0.5 µg/mL (≈ 0.636 µM)
MIC ([3]; strain S. spp. 1102): 0.06 µg/mL (≈ 0.0763 µM)
MIC ([3]; strain S. spp. 1187): 0.03 µg/mL (≈ 0.0382 µM)
MIC ([3]; strain S. spp. 1195): 0.06 µg/mL (≈ 0.0763 µM)
MIC ([3]; strain S. spp. 1256): 0.12 µg/mL (≈ 0.153 µM)
MIC ([3]; strain S. spp. 1312): 0.25 µg/mL (≈ 0.318 µM)
MIC ([3]; strain S. spp. 1689): 1 µg/mL (≈ 1.27 µM)
MIC ([3]; strain S. spp. 1745): 0.06 µg/mL (≈ 0.0763 µM)
